Source: article PMC4589404, “Entamoeba histolytica Dmc1 Catalyzes Homologous DNA Pairing and Strand Exchange That Is Stimulated by Calcium and Hop2-Mnd1” (PLoS ONE, 2015)

B1: ehDmc1 (Entamoeba histolytica HM-1:IMSS) (protein)
chain: MTEVKSKTNEQEENVQEIEEDEVEEVPSFHSIDILQQQGINVGDINKLKSAGCNTIESVVMHTHKELCAIRGFSDSKVDKIMEAVSKIFPTHSFISATTSLERRANVIKITTGSSQFDQLLGGGIETMSVTEMFGEFRTGKTQLCHTLAVTTQLPSHLKGGNGKVAYIDTEGTFRPERIAQIAERFGVDQTAVLDNILIARAYTHEQQFDLLIEVAARMAEDHFRMLIIDSVTSLFRVDFSGRGELSERQQKLGKMMNKLIKISEEFNVAVVITNQVMSDPGGGAMFVVDPKKPIGGHVIAHASTTRLYLRKGKGEQRIVKIYDSPNLPEAEATFAIDTGGIIDAKD
notes: 334 amino acid protein with N-terminal six-histidine tag

Columns and labels:
[1] = molecular target: T1, ehDmc1 (Entamoeba histolytica, UniProt C4LTR6); assay: D-loop assay with purified protein (IC50); also ssDNA EMSA, nuclease protection and ATPase assays; assay type: biochemical
T1 construct: gene EHI_050430; 334 amino acid protein with N-terminal six-histidine tag
T1 sequence (C4LTR6 1-347): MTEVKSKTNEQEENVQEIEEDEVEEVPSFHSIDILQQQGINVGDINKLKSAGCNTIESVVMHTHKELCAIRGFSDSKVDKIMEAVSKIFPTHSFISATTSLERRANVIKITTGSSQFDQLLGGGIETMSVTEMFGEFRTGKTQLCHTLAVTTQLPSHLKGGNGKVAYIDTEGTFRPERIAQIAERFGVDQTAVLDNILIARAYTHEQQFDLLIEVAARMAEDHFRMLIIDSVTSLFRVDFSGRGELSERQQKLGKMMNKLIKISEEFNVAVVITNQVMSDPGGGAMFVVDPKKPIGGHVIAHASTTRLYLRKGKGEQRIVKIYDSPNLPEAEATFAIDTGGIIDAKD

[2] = substrate: Nc1ncnc2c1ncn2[C@@H]1O[C@H](COP(=O)(O)OP(=O)(O)OP(=O)(O)O)[C@@H](O)[C@H]1O; assay: Michaelis-Menten ATP hydrolysis assay (TLC), purified protein; Km; assay type: biochemical, Entamoeba histolytica; conditions: Mg2+

Row | Molecule | IC50 [1] [µM] | Km [2] [µM]
1 | O=S(=O)(O)c1cc(N=C=S)ccc1C=Cc1ccc(N=C=S)cc1S(=O)(=O)O [DIDS, 4,4′-diisothiocyanostilbene-2,2′-disulfonic acid] | 4.5 ± 0.23 | –
2 | B1 | – | 480 ± 50
